Tests used:
Mu-type opioid receptor [1] = target: T1, Mu-type opioid receptor (Homo sapiens, UniProt P35372); test: Displacement of [3H]DAMGO from mu opioid receptor expressed in HEK293 cells relative to DAMGO; assay type: cell-based; set-up: concentration or dose not given beside the values
[2] = target: T2, Kappa-type opioid receptor (Homo sapiens, UniProt P41145); test: Displacement of [3H]diprenorphine from kappa opioid receptor expressed in HEK293 cells relative to salvinorin A; assay type: cell-based; set-up: concentration or dose not given beside the values
[3] = target: T2, Kappa-type opioid receptor; test: Displacement of [3H]U69593 from kappa opioid receptor expressed in HEK293 cells relative to salvinorin A; assay type: cell-based; set-up: concentration or dose not given beside the values
[4] = target: T3, Delta-type opioid receptor (Homo sapiens, UniProt P41143); test: Displacement of [3H]DADLE from delta opioid receptor expressed in HEK293 cells relative to DADLE; assay type: cell-based; set-up: concentration or dose not given beside the values
Mu-type opioid receptor [5] = target: T1, Mu-type opioid receptor; test: Displacement of [3H]DAMGO from mu opioid receptor expressed in HEK293 cells; assay type: cell-based
[6] = target: T2, Kappa-type opioid receptor; test: Displacement of [3H]U69593 from kappa opioid receptor expressed in HEK293 cells; assay type: cell-based
[7] = Selectivity ratio of Ki for mu opioid receptor to Ki for kappa opioid receptor
[8] = target: T3, Delta-type opioid receptor; test: Displacement of [3H]DADLE from delta opioid receptor expressed in HEK293 cells; assay type: cell-based
[9] = Selectivity ratio of Ki for delta opioid receptor to Ki for kappa opioid receptor
[10] = target: T2, Kappa-type opioid receptor; test: Agonist activity at kappa opioid receptor expressed in HEK293 cells by [35S]GTPgammaS binding assay relative to salvinorin A; assay type: functional, cell-based
[11] = target: T2, Kappa-type opioid receptor; test: Agonist activity at kappa opioid receptor expressed in HEK293 cells by [35S]GTPgammaS binding assay; assay type: functional, cell-based

T3 sequence (P41143 whole entry): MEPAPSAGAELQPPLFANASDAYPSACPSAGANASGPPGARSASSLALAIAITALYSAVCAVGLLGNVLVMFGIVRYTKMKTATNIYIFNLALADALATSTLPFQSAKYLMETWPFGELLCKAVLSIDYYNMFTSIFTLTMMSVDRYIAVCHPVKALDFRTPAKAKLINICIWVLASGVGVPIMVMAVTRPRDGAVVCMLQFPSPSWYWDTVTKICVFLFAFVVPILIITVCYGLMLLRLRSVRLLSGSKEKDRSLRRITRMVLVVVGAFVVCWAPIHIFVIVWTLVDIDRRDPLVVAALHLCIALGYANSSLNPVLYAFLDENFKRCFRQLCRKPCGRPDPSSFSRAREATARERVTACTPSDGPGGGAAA
T1 sequence (P35372 whole entry): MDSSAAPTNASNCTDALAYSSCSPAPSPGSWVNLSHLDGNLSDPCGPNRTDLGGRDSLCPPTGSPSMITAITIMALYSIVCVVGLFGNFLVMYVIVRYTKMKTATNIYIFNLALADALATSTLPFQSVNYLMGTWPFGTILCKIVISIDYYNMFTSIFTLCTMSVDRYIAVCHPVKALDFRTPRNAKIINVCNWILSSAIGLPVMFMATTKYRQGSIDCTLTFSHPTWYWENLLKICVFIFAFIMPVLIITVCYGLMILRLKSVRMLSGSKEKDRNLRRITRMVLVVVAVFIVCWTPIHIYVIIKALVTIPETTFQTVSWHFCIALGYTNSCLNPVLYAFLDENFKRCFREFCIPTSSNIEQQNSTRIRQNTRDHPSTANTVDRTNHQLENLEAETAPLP
T2 sequence (P41145 whole entry): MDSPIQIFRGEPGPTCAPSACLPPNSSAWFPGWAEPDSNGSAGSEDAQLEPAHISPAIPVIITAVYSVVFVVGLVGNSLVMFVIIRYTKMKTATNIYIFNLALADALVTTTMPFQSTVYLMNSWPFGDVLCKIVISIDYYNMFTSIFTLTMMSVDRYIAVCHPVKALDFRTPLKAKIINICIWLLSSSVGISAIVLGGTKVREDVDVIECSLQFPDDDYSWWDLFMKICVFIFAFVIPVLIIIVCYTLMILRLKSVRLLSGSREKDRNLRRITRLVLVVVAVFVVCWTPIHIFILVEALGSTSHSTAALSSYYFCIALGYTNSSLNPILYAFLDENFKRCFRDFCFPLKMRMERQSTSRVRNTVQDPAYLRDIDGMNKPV

| SMILES | Activity (Mu-type opioid receptor [1]) [%] | Activity [2] [%] | Activity [3] [%] | Activity [4] [%] | Ki (Mu-type opioid receptor [5]) [µM] | Ki [6] [µM] | Ratio Ki [7] | Ki [8] [µM] | Ratio Ki [9] | Emax [10] [%] | EC50 [11] [µM] | Emax [11] [%] |
| --- | --- | --- | --- | --- | --- | --- | --- | --- | --- | --- | --- | --- |
| COC(=O)[C@@H]1C[C@H](OC(=O)[C@@H](NC(=O)OCC2c3ccccc3-c3ccccc32)[C@H](C)OC(C)(C)C)C(=O)[C@H]2[C@@]1(C)CC[C@H]1C(=O)O[C@H](c3ccoc3)C[C@]21C | 18 | 12 | 28 | 8 | – | – | – | – | – | – | – | – |
| COC(=O)[C@@H]1C[C@H](OC(=O)[C@@H](NC(=O)OCC2c3ccccc3-c3ccccc32)C(C)C)C(=O)[C@H]2[C@@]1(C)CC[C@H]1C(=O)O[C@H](c3ccoc3)C[C@]21C | 15 | 0 | 39 | 22 | – | – | – | – | – | – | – | – |
| COC(=O)[C@@H]1C[C@H](OC(=O)CCCNC(=O)OCC2c3ccccc3-c3ccccc32)C(=O)[C@H]2[C@@]1(C)CC[C@H]1C(=O)O[C@H](c3ccoc3)C[C@]21C | 27 | 0 | 10 | 24 | – | – | – | – | – | – | – | – |
| COC(=O)[C@@H]1C[C@H](OC(=O)[C@H](C)N)C(=O)[C@H]2[C@@]1(C)CC[C@H]1C(=O)O[C@H](c3ccoc3)C[C@]21C | -1.6 | 0 | 82 | 18 | > 10 | 3.78 | > 2.64 | > 10 | > 2.64 | – | – | – |
| COC(=O)[C@@H]1C[C@H](OC(=O)CCCN)C(=O)[C@H]2[C@@]1(C)CC[C@H]1C(=O)O[C@H](c3ccoc3)C[C@]21C | 1 | 0 | 48 | 28 | – | – | – | – | – | – | – | – |
| Oc1ccc2c3c1O[C@H]1c4[nH]c5ccccc5c4C[C@@]4(O)[C@@H](C2)N(CC2CC2)CC[C@]314 | – | – | – | 100 | – | – | – | – | – | – | – | – |
| COC(=O)[C@@H]1C[C@H](OC(=O)[C@@H](N)Cc2ccccc2)C(=O)[C@H]2[C@@]1(C)CC[C@H]1C(=O)O[C@H](c3ccoc3)C[C@]21C | -6 | 0 | 19 | 13 | – | – | – | – | – | – | – | – |
| COC(=O)[C@@H]1C[C@H](OC(=O)[C@@H](N)C(C)C)C(=O)[C@H]2[C@@]1(C)CC[C@H]1C(=O)O[C@H](c3ccoc3)C[C@]21C | 5 | 91 | 103 | 48 | > 10 | 0.042 | > 238 | > 10 | > 238 | 118 | 0.213 | 828 |
| COC(=O)[C@@H]1C[C@H](OC(=O)CN)C(=O)[C@H]2[C@@]1(C)CC[C@H]1C(=O)O[C@H](c3ccoc3)C[C@]21C | -5 | 0 | 41 | 17 | – | – | – | – | – | – | – | – |
| COC(=O)[C@@H]1C[C@H](OC(=O)[C@@H](N)[C@H](C)OC(C)(C)C)C(=O)[C@H]2[C@@]1(C)CC[C@H]1C(=O)O[C@H](c3ccoc3)C[C@]21C | 2 | 0 | 6 | 11 | – | – | – | – | – | – | – | – |
| COC(=O)[C@@H]1C[C@H](OC(=O)[C@H](C)NC(=O)OCC2c3ccccc3-c3ccccc32)C(=O)[C@H]2[C@@]1(C)CC[C@H]1C(=O)O[C@H](c3ccoc3)C[C@]21C | 24 | 0 | 21 | 15 | – | – | – | – | – | – | – | – |
| COC(=O)[C@@H]1C[C@H](OC(=O)CNC(=O)OCC2c3ccccc3-c3ccccc32)C(=O)[C@H]2[C@@]1(C)CC[C@H]1C(=O)O[C@H](c3ccoc3)C[C@]21C | 20 | 10 | 4 | 16 | – | – | – | – | – | – | – | – |
| COC(=O)[C@@H]1C[C@H](OC(=O)[C@H](Cc2ccccc2)NC(=O)OCC2c3ccccc3-c3ccccc32)C(=O)[C@H]2[C@@]1(C)CC[C@H]1C(=O)O[C@H](c3ccoc3)C[C@]21C | 0.5 | 34 | 0 | 3 | – | – | – | – | – | – | – | – |

Source: ChEMBL document CHEMBL1641545 (Bioorg Med Chem Lett, 2011)
